Converted amounts (≈) assume the structure as drawn. Read-outs that look alike come from different tables or passages of the source.
Tests used:
[1] = tested on: V. cholerae CO6; assay: Broth microdilution MIC/MBC; assay type: cell-based, Vibrio cholerae; settings: V. cholerae CO6; for MBC / MIC: Vibrio cholerae; for MBC: 99.9% reduction in CFU after 24 h; for MIC: 24 h at 37 °C
Procedure: (§1) A total of six bacterial strains were tested for their susceptibility to compounds and these strains were taken from our laboratory collection (kindly provided by Dr. T. Ramamurthy, NICED, Kolkata). Among the clinical strains of Vibrio cholerae used in this study, strains NB2 and SG24 and CO6 belonged to O1 and O139 serotypes, respectively. […]. The other strains used in this study were V. cholerae non-O1, non-O139 (strain PC2); […]. The American Type Culture Collection (ATCC) strain, Staphylococcus aureus ATCC 25923, was used for quality control. The bacterial strains were maintained on agar slant at 4 °C and subcultured on a fresh appropriate agar plates 24 h prior to any antibacterial test. The Mueller Hinton Agar (MHA) was used for the activation of bacteria. The Mueller Hinton Broth (MHB) and nutrient agar (Hi-Media) were used for the MIC and MBC determinations respectively.
(§2) Suspensions of bacteria were prepared in MHB from cells arrested during their logarithmic phase growth (4 h) on MHB at 37 °C. The turbidity of the microbial suspension was read spectrophotometrically at 600 nm and adjusted to an OD of 0.1 with MHB, which is equivalent to 1 × 10^8 CFU/mL. From this prepared solution, other dilutions were made with MHB to yield 1x10^6 CFU/mL.
(§3) MIC and MBC of compounds 1–3 were assessed using the broth microdilution method recommended by the National Committee for Clinical Laboratory Standards with slight modifications. Each test sample was dissolved in dimethylsulfoxide (DMSO) to give a stock solution. The 96-well round bottom sterile plates were prepared by dispensing 180 μL of the inoculated broth (1x10^6 CFU/mL) into each well. A 20 μL aliquot of the stock solution of compound was added. The concentrations of sample tested were 0.125, 0.25, 0.50, 1, 2, 4, 8, 16, 32, 64, 128, 256 and 512 μg/mL. […] Dilutions of tetracycline and ampicillin served as positive controls, while broth with 20 μL of DMSO was used as negative control. The ATCC strain Staphylococcus aureus ATCC 25923 was included for quality assurance purposes. Plates were covered and incubated for 24 h at 37 °C. After incubation, minimum inhibitory concentrations (MIC) were read visually; all wells were plated to nutrient agar (Hi-Media) and incubated. The minimal bactericidal concentration (MBC) was defined as a 99.9% reduction in CFU from the starting inoculums after 24 h incubation interval.

[2] = tested on: V. cholerae NB2; assay: Broth microdilution MIC/MBC; assay type: cell-based, Vibrio cholerae; settings: V. cholerae NB2; for MIC: 24 h at 37 °C; for MBC: 99.9% reduction in CFU after 24 h
Procedure: as §1, §2, §3

[3] = tested on: V. cholerae PC2; assay: Broth microdilution MIC/MBC; assay type: cell-based, Vibrio cholerae; settings: V. cholerae PC2; for MIC: 24 h at 37 °C; for MBC: 99.9% reduction in CFU after 24 h
Procedure: as §1, §2, §3

[4] = tested on: V. cholerae SG24; assay: Broth microdilution MIC/MBC; assay type: cell-based, Vibrio cholerae; settings: for MBC / MIC: Vibrio cholerae; for MBC: 99.9% reduction in CFU after 24 h; for MIC: 24 h at 37 °C
Procedure: as §1, §2, §3

[5] = tested on: S. flexneri SDINT; assay: Broth microdilution MIC/MBC; assay type: cell-based, Shigella flexneri; settings: S. flexneri SDINT; for MIC: 24 h at 37 °C; for MBC: 99.9% reduction in CFU after 24 h
Procedure: as §1, §2, §3

[6] = tested on: S. aureus ATCC 25923; assay: Broth microdilution MIC/MBC; assay type: cell-based, Staphylococcus aureus; settings: S. aureus ATCC 25923; for MBC / MIC: Staphylococcus aureus, ATCC25923; for MBC: 99.9% reduction in CFU after 24 h; for MIC: 24 h at 37 °C
Procedure: as §1, §2, §3

[7] = MTT cytotoxicity assay; assay type: cell-based, Human; settings: human, HeLa cells; MTT, 24 h, mean ± SD; read-out: Cytotoxicty (LC50) HeLa cells
Procedure: (§4) HeLa (Human cervical cancer cell line, ATCC No. CCL-2) and Vero cells (African green monkey kidney cells, normal non-cancer cells, ATCC No. CCL-81), obtained from the American Type Culture Collection (ATCC) were used in this study. Cytotoxic activity was determined using the 3-(4,5-dimethylthiazol-2-yl)-2,5-diphenyltetrazolium bromide (MTT, Sigma, USA) assay reported by Mosmann for the HeLa and Vero cells. This cell viability assay is based on living cell‘s property to transform the MTT dye tetrazolium ring into a purple-colored formazan structure due to the action of mitochondrial and other dehydrogenases inside the cell. The color intensity yielded by the cell population is directly proportional to the number of viable cells, and one can quantify the absorbance measurements using mathematical parameters. Each test sample was dissolved in dimethylsulfoxide (DMSO) to give a stock solution. Compounds 1–3 were prepared from the stock solutions by serial dilution in RPMI 1640 to give a volume of 100 μL in each well of a microtiter plate (96-well). Each well was filled with 100 μL of cells at 2 × 10^5 cells/mL. The assay for each concentration of compound was performed in triplicates and the culture plates were kept at 37 °C with 5% (v/v) CO2 for 24 h. After removing the supernatant of each well and washing twice by PBS, 20 μL of MTT solution (5 mg/mL in PBS) and 100 μL of medium were then introduced. After 4 h of incubation, 100 μL of DMSO were added to each well to dissolve the formazan crystals and the absorbance values at 490 nm were measured with a microplate reader (Bio-RAD 680, USA). The relative cell viability (%) was expressed as a relative percentage of treated cells to the untreated control cells (TC/UC × 100). The rate of cell inhibition was calculated using the following formula: inhibition rate = [1- (ODtest/ODnegative control)] × 100%. The LC50 values were calculated as the concentration of test sample resulting in a 50% reduction of absorbance compared to untreated cells. Cells treated with 5-fluorouridine + RPMI 1640 served as positive control while cells left untreated + 1% (v/v) DMSO + RPMI 1640 were used as negative control.

[8] = tested on: HeLa cells; assay: MTT cytotoxicity assay; assay type: cell-based, Human; settings: SI = LC50 on Vero cells / LC50 on HeLa cells
Procedure: as §4

[9] = MTT cytotoxicity assay; assay type: cell-based; settings: African green monkey, Vero cells, normal non-cancer cells, mean ± SD, read-out: Cytotoxicty (LC50) Vero cells
Procedure: as §4

[10] = Hemolytic assay; assay type: cell-based; settings: male, 1% human red blood cell suspension, 512 μg/mL (highest concentration tested), 1% human red blood cells, PBS pH 7.4, 37 °C
Procedure: Whole blood (10 mL) from a healthy person was collected into a conical tube containing heparin as an anticoagulant. Erythrocytes were harvested by centrifugation at room temperature for 10 min at 1,000 × g and were washed three times in PBS solution. The top layer (plasma) and the next, milky layer (buffy coat with a layer of platelets on top of it) were then carefully aspirated and discarded. The cell pellet was resuspended in 10 mL of PBS solution and mixed by gentle aspiration with a Pasteur pipette. This cell suspension was used immediately.
For the normal human red blood cells, which were in suspension, the cytotoxicity was evaluated as previously described. Compounds 1–3, at concentrations ranging from 32 to 512 μg/mL, were incubated with an equal volume of 1% human red blood cells in phosphate buffered saline (10 mM PBS, pH 7.4) at 37 °C for 1 h. Tetracycline was tested simultaneously. Non-hemolytic and 100% hemolytic controls were the buffer alone and the buffer containing 1% Triton X-100, respectively. Cell lysis was monitored by measuring the release of hemoglobin at 595 nm with a spectrophotometer (Thermo Scientific, USA). Percent hemolysis was calculated as follows: [(A595 of sample treated with compound - A595 of sample treated with buffer)/(A595 of sample treated with Triton X-100 – A595 of sample treated with buffer)] x 100.

[11] = Shigella flexneri, read-out: MIC

SMILES	MBC/MIC [1]	MBC [1] [µg/mL]	MIC [1] [µg/mL]	MBC ([2]; Vibrio cholerae) [µg/mL]	MIC ([2]; Vibrio cholerae, read-out: MIC) [µg/mL]	MBC ([3]; Vibrio cholerae) [µg/mL]	MIC ([3]; Vibrio cholerae, read-out: MIC) [µg/mL]	MBC/MIC [4]	MBC [4] [µg/mL]	MIC [4] [µg/mL]	MBC ([5]; Shigella flexneri) [µg/mL]	MIC [5, 11] [µg/mL]	MBC/MIC [6]	MBC [6] [µg/mL]	MIC [6] [µg/mL]	also measured
CC1(C)S[C@@H]2[C@H](NC(=O)[C@H](N)c3ccccc3)C(=O)N2[C@H]1C(=O)O [Ampicillin, reference compound]	1	16 (≈ 45.8 µM)	16 (≈ 45.8 µM)	> 512	> 512	> 512	> 512	1	16 (≈ 45.8 µM)	16 (≈ 45.8 µM)	> 512	> 512	1	16 (≈ 45.8 µM)	16 (≈ 45.8 µM)	MIC [2]: >512 µg/mL; MIC [3]: >512 µg/mL; MIC [5]: >512 µg/mL
O=c1[nH]c(=O)n([C@@H]2O[C@H](CO)[C@@H](O)[C@H]2O)cc1F [Compound 5-FU, 5-Fluorouridine, reference compound]	–	–	–	–	–	–	–	–	–	–	–	–	–	–	–	CC50 at 24 h [7]: 0.25 ± 0.05 µg/mL (≈ 0.953 µM); Selectivity Index HeLa cells [8]: 18.52; CC50 at 24 h [9]: 4.63 ± 0.17 µg/mL (≈ 17.7 µM)
CN(C)[C@@H]1C(O)=C(C(N)=O)C(=O)[C@@]2(O)C(O)=C3C(=O)c4c(O)cccc4[C@@](C)(O)[C@H]3C[C@@H]12 [Tetracycline, reference compound]	4	8 (≈ 18 µM)	2 (≈ 4.5 µM)	2 (≈ 4.5 µM)	0.5 (≈ 1.13 µM)	1 (≈ 2.25 µM)	0.5 (≈ 1.13 µM)	2	1 (≈ 2.25 µM)	0.5 (≈ 1.13 µM)	32 (≈ 72 µM)	16 (≈ 36 µM)	2	32 (≈ 72 µM)	16 (≈ 36 µM)	MBC/MIC [2]: 4; MBC/MIC [3]: 2; MBC/MIC [5]: 2; hemolysis at 1 h, 512 μg/mL [10]: < 10%

— publication PMC5109658, “Antibacterial and cytotoxic cytochalasins from the endophytic fungus Phomopsis sp. harbored in Garcinia kola (Heckel) nut” (BMC Complementary and Alternative Medicine, 2016)
